Results taken from ChEMBL document CHEMBL1201862, “PubChem BioAssay data set” (2004).
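Where inhibition never reached the appropriate level, the endpoint shown equals the highest concentration tested. Otherwise, values were interpolated linearly from a five-concentration, 48-hour dose response in 96-well plates. Abbreviation: GI50, concentration required for 50% inhibition of growth.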 The source made the active and inactive calls. Cut-off read from the data, not from the text of the source: active = GI50 up to about 1.1 µM and inactive = higher.

Tests used:
Assay in all cases: DTP human tumour cell line panel, 48 h
[1] = test system: SNB-19
[2] = test system: KM12
[3] = test system: CAKI-1
[4] = test system: UACC-257
[5] = test system: MDA-N
[6] = test system: CCRF-CEM
[7] = test system: TK-10
[8] = test system: NCI-H226
[9] = test system: 786-0
[10] = test system: SF-295
[11] = test system: M14
[12] = test system: MCF7
[13] = test system: COLO 205
[14] = test system: LOX IMVI
[15] = test system: RXF 393
[16] = test system: Hs-578T
[17] = test system: PC-3
[18] = test system: SW-620
[19] = test system: MDA-MB-435
[20] = test system: HT-29

Structure (SMILES)	GI50 [1]	GI50 [2]	GI50 [3]	GI50 [4]	GI50 [5]	GI50 [6]	GI50 [7]	GI50 [8]	GI50 [9]	GI50 [10]	GI50 [11]	GI50 [12]	GI50 [13]	GI50 [14]	GI50 [15]	GI50 [16]	GI50 [17]	GI50 [18]	GI50 [19]	GI50 [20]
C/C(=N\NC(=S)NC(C)(C)C)c1ccccn1	4.5 µM (inactive)	0.574 µM (active)	< 0.0333 µM (active)	< 0.01 µM (active)	0.131 µM (active)	< 0.01 µM (active)	0.358 µM (active)	0.0675 µM (active)	< 0.0406 µM (active)	0.589 µM (active)	< 0.0314 µM (active)	< 0.01 µM (active)	< 0.01 µM (active)	< 0.01 µM (active)	< 0.01 µM (active)	1.12 µM (inactive)	< 0.01 µM (active)	< 0.01 µM (active)	1.52 µM (inactive)	–
N#Cc1cc2cc3c4c(c2oc1=O)CCCN4CCC3	> 100 µM (inactive)	> 100 µM (inactive)	> 100 µM (inactive)	> 100 µM (inactive)	> 100 µM (inactive)	> 100 µM (inactive)	> 100 µM (inactive)	> 100 µM (inactive)	> 100 µM (inactive)	> 100 µM (inactive)	> 100 µM (inactive)	> 100 µM (inactive)	> 100 µM (inactive)	> 100 µM (inactive)	> 100 µM (inactive)	> 100 µM (inactive)	> 100 µM (inactive)	> 100 µM (inactive)	> 100 µM (inactive)	> 100 µM (inactive)
COc1ccc(P2(=S)SP(=S)(c3ccc(Cl)cc3)S2)cc1 (stereo not drawn)	> 100 µM (inactive)	> 100 µM (inactive)	> 100 µM (inactive)	> 100 µM (inactive)	> 100 µM (inactive)	> 100 µM (inactive)	> 100 µM (inactive)	> 100 µM (inactive)	> 100 µM (inactive)	> 100 µM (inactive)	> 100 µM (inactive)	> 100 µM (inactive)	> 100 µM (inactive)	> 100 µM (inactive)	> 100 µM (inactive)	> 100 µM (inactive)	> 100 µM (inactive)	> 100 µM (inactive)	> 100 µM (inactive)	> 100 µM (inactive)
C/C(=N\N=C(/S)N1CC2CCC(CC2)C1)c1ccncn1	0.198 µM (active)	< 0.01 µM (active)	< 0.01 µM (active)	< 0.01 µM (active)	0.189 µM (active)	< 0.01 µM (active)	< 0.01 µM (active)	< 0.01 µM (active)	0.0103 µM (active)	< 0.0179 µM (active)	< 0.01 µM (active)	< 0.01 µM (active)	< 0.01 µM (active)	< 0.01 µM (active)	0.794 µM (active)	0.914 µM (active)	< 0.01 µM (active)	< 0.01 µM (active)	0.0703 µM (active)	< 0.01 µM (active)
C=C(C(=O)OC)N1C(=O)CC(C)C1=O (stereo not drawn)	21.4 µM (inactive)	20.3 µM (inactive)	1.13 µM (inactive)	12.3 µM (inactive)	14.2 µM (inactive)	1.7 µM (inactive)	6.79 µM (inactive)	27 µM (inactive)	10.7 µM (inactive)	29.1 µM (inactive)	13.7 µM (inactive)	10.3 µM (inactive)	4.2 µM (inactive)	7.14 µM (inactive)	9.71 µM (inactive)	24.3 µM (inactive)	16.1 µM (inactive)	9.35 µM (inactive)	16.9 µM (inactive)	10.7 µM (inactive)
Fc1ccc2nc3n(c2c1)C(c1c(F)cccc1F)SC3 (stereo not drawn)	> 100 µM (inactive)	39.4 µM (inactive)	35.2 µM (inactive)	47.8 µM (inactive)	26.7 µM (inactive)	–	96.4 µM (inactive)	> 100 µM (inactive)	> 100 µM (inactive)	46 µM (inactive)	49.1 µM (inactive)	39.9 µM (inactive)	45.2 µM (inactive)	50.7 µM (inactive)	53.7 µM (inactive)	> 100 µM (inactive)	40.7 µM (inactive)	49.5 µM (inactive)	40.5 µM (inactive)	33.3 µM (inactive)
NS(=O)(=O)c1nnc(NC(=O)N(c2ccccc2)c2ccccc2)s1	24.4 µM (inactive)	21.6 µM (inactive)	28.6 µM (inactive)	36.1 µM (inactive)	25.4 µM (inactive)	20.1 µM (inactive)	41.2 µM (inactive)	41.5 µM (inactive)	23 µM (inactive)	34 µM (inactive)	15.2 µM (inactive)	38.1 µM (inactive)	37.9 µM (inactive)	15.9 µM (inactive)	18.4 µM (inactive)	25 µM (inactive)	33 µM (inactive)	29.9 µM (inactive)	23.4 µM (inactive)	27.6 µM (inactive)
Cc1cc(=O)nc(S(=O)(=O)NC(=O)Nc2cccc(Cl)c2)[nH]1	> 100 µM (inactive)	14.7 µM (inactive)	–	> 100 µM (inactive)	> 100 µM (inactive)	64.4 µM (inactive)	> 100 µM (inactive)	> 100 µM (inactive)	> 100 µM (inactive)	16.2 µM (inactive)	> 100 µM (inactive)	> 100 µM (inactive)	> 100 µM (inactive)	> 100 µM (inactive)	> 71.4 µM (inactive)	> 100 µM (inactive)	> 30.5 µM (inactive)	> 100 µM (inactive)	> 33.5 µM (inactive)	> 100 µM (inactive)
CC1=C(Br)C(=O)C(C)=C(Br)C1=O.Cc1c(O)c(Br)c(C)c(O)c1Br	18.1 µM (inactive)	19.4 µM (inactive)	2.14 µM (inactive)	1.6 µM (inactive)	1.81 µM (inactive)	0.216 µM (active)	1.64 µM (inactive)	6.65 µM (inactive)	1.77 µM (inactive)	16.3 µM (inactive)	1.67 µM (inactive)	1.96 µM (inactive)	1.98 µM (inactive)	1.87 µM (inactive)	1.88 µM (inactive)	5.92 µM (inactive)	2.05 µM (inactive)	1.97 µM (inactive)	1.89 µM (inactive)	2.07 µM (inactive)
CCOC(=O)c1ccc(Nc2cnc3ccc(C(F)(F)F)cc3n2)cc1	28.1 µM (inactive)	13.1 µM (inactive)	16.9 µM (inactive)	18.4 µM (inactive)	17.9 µM (inactive)	12.1 µM (inactive)	12.3 µM (inactive)	16.4 µM (inactive)	13.9 µM (inactive)	20.7 µM (inactive)	22.7 µM (inactive)	19.1 µM (inactive)	15.3 µM (inactive)	15.8 µM (inactive)	8.18 µM (inactive)	17.4 µM (inactive)	19.2 µM (inactive)	15.2 µM (inactive)	21.5 µM (inactive)	11.9 µM (inactive)
CCOC(=O)CC/C(C)=N\n1c(Cc2ccc(Cl)cc2)n[nH]c1=O	> 100 µM (inactive)	> 100 µM (inactive)	> 100 µM (inactive)	> 100 µM (inactive)	> 100 µM (inactive)	–	> 100 µM (inactive)	> 100 µM (inactive)	> 100 µM (inactive)	> 100 µM (inactive)	> 100 µM (inactive)	> 100 µM (inactive)	–	> 100 µM (inactive)	> 100 µM (inactive)	> 100 µM (inactive)	> 100 µM (inactive)	> 100 µM (inactive)	> 100 µM (inactive)	> 100 µM (inactive)
NC1C/C(=N\O)c2c(I)sc(I)c21 (stereo not drawn)	17.2 µM (inactive)	13.1 µM (inactive)	15.2 µM (inactive)	16 µM (inactive)	19.8 µM (inactive)	2.44 µM (inactive)	16.9 µM (inactive)	18.4 µM (inactive)	16 µM (inactive)	17.2 µM (inactive)	14.5 µM (inactive)	7.31 µM (inactive)	19.6 µM (inactive)	1.77 µM (inactive)	21.3 µM (inactive)	19.8 µM (inactive)	17.1 µM (inactive)	9.82 µM (inactive)	13.8 µM (inactive)	19.2 µM (inactive)
Cc1cc(=O)oc2cc(O)ccc12 [HYMECROMONE]	> 100 µM (inactive)	> 100 µM (inactive)	> 100 µM (inactive)	> 100 µM (inactive)	> 100 µM (inactive)	> 100 µM (inactive)	> 100 µM (inactive)	> 100 µM (inactive)	> 100 µM (inactive)	> 100 µM (inactive)	–	> 100 µM (inactive)	> 100 µM (inactive)	> 100 µM (inactive)	> 100 µM (inactive)	> 100 µM (inactive)	> 100 µM (inactive)	> 100 µM (inactive)	> 100 µM (inactive)	> 100 µM (inactive)
COC(=O)C1OC(O[C@H]2CC[C@]3(C)[C@H]4CC=C5[C@@H]6CC(C)(C)CC[C@]6(C(=O)OC)[C@H](O)C[C@@]5(C)[C@]4(C)CC[C@H]3C2(C)C)C(O)C(O)C1O (stereo partly drawn)	13.9 µM (inactive)	1.67 µM (inactive)	14.2 µM (inactive)	15.3 µM (inactive)	12.2 µM (inactive)	3.1 µM (inactive)	–	15 µM (inactive)	8.49 µM (inactive)	10.4 µM (inactive)	5.22 µM (inactive)	11 µM (inactive)	4.98 µM (inactive)	3.18 µM (inactive)	5.22 µM (inactive)	13.8 µM (inactive)	6.64 µM (inactive)	12.4 µM (inactive)	13.1 µM (inactive)	3.21 µM (inactive)
